Reference: US8193333B2, “Cancer therapy using Bcl-Xl-specific siNA” (Centre Regional de Lutte Contre le Cancer-Centre Francois …, priority 2006, dated 2012)

Columns and labels:
Format in all cases: cell-based, human
[1] = test system: SKOV3 cells; experiment: Cell mortality, viability, growth and cell cycle of SKOV3 cells (morphology, trypan blue exclusion, FACS of DNA content)
Description: (§1) Exponentially growing cells were exposed to CDDP for 2 hours at 37° C., in serum free medium. After exposure to the drug, the cell layers were rinsed and incubated in complete growth medium.
(§2) The siRNA duplexes were transfected according to the recommended procedure by using the Oligofectamine Reagent and Opti-MEM medium (INVITROGEN LIFE TECHNOLOGIES). 30-40% confluent cells were transfected in 25 cm^2 flasks with different concentrations of siXL1, siRNA Mcl-1 or siRNA control and incubated at 37° C., 5% CO2 for 4 hours. Next, 20% fetal bovin serum was added to reach a final concentration of 10% foetal bovin serum in the 25 cm^2 flask.
After treatment, detached cells were collected separately and adherent cells were dissociated by trypsin/EDTA. Adherent and detached cells were then pooled and centrifuged at 1500×g for 5 min before being fixed in 70% ethanol. The cells were then collected on a polylysine-coated glass slide by cytocentrifugation, before a 30 min room temperature incubation in a 1 μg/ml DAPI aqueous solution (BOEHRINGER MANNHEIM). Slides were thereafter extensively washed in distilled water and mounted in Mowiol (CALBIO-CHEM).
After treatment, detached cells were collected separately. Adherent cells were then harvested by trypsin/EDTA dissociation. Adherent and detached cells were then pooled and washed in PBS before being fixed in 70% ethanol and stored at −20° C. until analysis. Before flow cytometry analysis, the cells were washed in PBS and incubated for 30 min at room temperature in PBS in order to allow the release of low molecular weight (m.w.) DNA, characteristic of apoptotic cells. After a centrifugation at 4000 g for 10 min, the cell pellets were resuspended and stained with propidium iodide (PI) using the DNA Prep Coulter Reagent Kit (BECKMAN-COULTER) at a final concentration of 10^6 cells/ml.
Samples were analyzed using an EPICS XL flow cytometer (BECKMAN COULTER) equipped with an argon laser at 15 mW. PI-stained cells were analyzed using a 488 mn excitation. A 620 nm band pass filter was put on the red fluorescence of PI. Computerized gating was applied on the side and forward scatter to exclude very small debris and on pulse width and integral peak of red fluorescence to eliminate aggregates. All samples were analyzed at a flow rate lower than 100 events per second and with a sheath pressure of 30 psi.

[2] = test system: Mcl-1 protein; experiment: Western blot of Mcl-1 protein expression in SKOV3 cells; conditions: FIG. 11B
Description: as §2
Cells were rinsed with ice cold PBS and lysed in 150 mM NaCl, 50 mM Tris-HCl pH 8, 1% Triton X100, 4 mM PMSF, 2 mM Aprotinin, 5 mM EDTA, 10 mM NaF, 10 mM NaPPi, 1 mM Na3VO4 for 30 min on ice. Lysates were clarified by centrifugation at 10000 g for 10 min at 4° C. and protein concentrations were determined using the Bradford assay (BIO-RAD). Equal amounts of total cellular protein (20 μg) were resolved in a Bis-tris-HCL buffered (pH 6.4) 4-12% polyacrylamide gel (NuPAGE® Novex® 4-12% Bis-tris gel, INVITROGEN) for 35 min at 200V and electrophoretically transferred on a PVDF membrane (MILLIPORE) for 75 min at 30V. The membrane was blocked for 1 hour at room temperature in T-TBS (132 mM NaCl, 20 mM Tris-HCl pH 7.6, 0.05% Tween 20) supplemented with 5% non-fat dry milk. […] After 3 washes with T-TBS and one with TBS, the immunoreactivity was detected by enhanced chemiluminescence (ECL kit, AMERSHAM).

[3] = test system: Bcl-XL mRNA; experiment: RT-PCR of Bcl-XL mRNA in SKOV3 cells after siRNA transfection; conditions: 72 h after transfection, FIG. 1A
Description: as §2
One μg of total RNA, extracted by RNAeasy kit (QIAGEN), was reverse-transcripted with 200 units Omniscript reverse transcriptase (QIAGEN) in first strand reaction conditions recommended by the manufacturer. The targeted cDNA were amplified using the following pair of primers, Bcl-XL/S forward 5′-[…]-3′ (SEQ ID NO: 11) and Bcl-XL/S reverse 5′-gtagagtggatggtcagtg-3′ (SEQ ID NO:12; Bargou et al., Int. J. Cancer, 1995, 16, 854-859), and amplified under the following cycling conditions: pre-incubation 94° C. for 5 min then 94° C. for 40 sec, 58° C. for 60 sec and 72° C. for 40 sec for 30 cycles, post-incubation 72° C. for 3 min within a Mastercycleur Gradient (EPPENDORF). The use of these primers allows the migration of Bcl-Xs and Bcl-XL PCR products as two distinct bands of respectively 576 and 765 bp.

[4] = test system: Bcl-XL protein; experiment: Western blot of Bcl-XL protein expression in tumour cell lines after siRNA transfection
Description: SKOV3, OAW42, OAW42-R10, IGROV1 and IGROV1-R10 human ovarian adenocarcinoma cell lines, GL15 glioblastoma cell line, and NCI-H28 mesothelioma cell line were obtained from ECACC or ATCC. OAW42, OAW42-R10 cells were grown in DMEM (GIBCO-BRL) supplemented with 10% foetal calf serum (GIBCO-BRL), 2 mM Glutamax™ (GIBCO-BRL), 1 mM sodium pyruvate (GIBCO-BRL), 20 UI/L human recombinant insulin (LILLY), 33 mM sodium bicarbonate and 20 mM HEPES All the other cell lines were grown in RPMI 1640 medium (GIBCO-BRL) supplemented with 10% foetal calf serum (GIBCO-BRL), 2 mM Glutamax™ (GIBCO-BRL), 33 mM sodium bicarbonate and 20 mM HEPES. Cells were maintained at 37° C. in a 5% CO2 humidified atmosphere, and split twice a week by trypsinization.
as §1, §2
Cells were rinsed with ice cold PBS and lysed in 150 mM NaCl, 50 mM Tris-HCl pH 8, 1% Triton X100, 4 mM PMSF, 2 mM Aprotinin, 5 mM EDTA, 10 mM NaF, 10 mM NaPPi, 1 mM Na3VO4 for 30 min on ice. Lysates were clarified by centrifugation at 10000 g for 10 min at 4° C. and protein concentrations were determined using the Bradford assay (BIO-RAD). Equal amounts of total cellular protein (20 μg) were resolved in a Bis-tris-HCL buffered (pH 6.4) 4-12% polyacrylamide gel (NuPAGE® Novex® 4-12% Bis-tris gel, INVITROGEN) for 35 min at 200V and electrophoretically transferred on a PVDF membrane (MILLIPORE) for 75 min at 30V. The membrane was blocked for 1 hour at room temperature in T-TBS (132 mM NaCl, 20 mM Tris-HCl pH 7.6, 0.05% Tween 20) supplemented with 5% non-fat dry milk. The membrane was incubated for 1 hour at room temperature in T-TBS-milk with the following primary antibodies: anti-Bcl-XL/S (1:500, S18 SANTA-CRUZ BIOTECHNOLOGY), anti-PARP (1:1000, CELL-SIGNALING TECHNOLOGY), anti-caspase-3 (1:1000, BD BIOSCIENCES PHARMINGEN) anti-cleaved caspase-3 (1:1000, CELL-SIGNALING TECHNOLOGY), anti-alpha-tubulin (1:3000, SIGMA) and anti-Mcl-1 (1:750, S19 SANTA-CRUZ BIOTECHNOLOGY). After three washes with T-TBS, the membrane was incubated for 1 h at room temperature in T-TBS-milk with the adequate peroxidase conjugated secondary antibody (Anti-rabbit IgG, CELL-SIGNALING TECHNOLOGY, and anti-mouse IgG, AMERSHAM). After 3 washes with T-TBS and one with TBS, the immunoreactivity was detected by enhanced chemiluminescence (ECL kit, AMERSHAM).

[5] = SKOV3 cells, 100 nM siXL1, FIG. 4

siXL1: double-stranded siRNA blocking Bcl-XL expression; sense 5′-auuggugagucggaucgcatt-3′ (SEQ ID NO: 5), anti-sense 5′-ugcgauccgacucaccaautt-3′ (SEQ ID NO: 6) (sense AUUGGUGAGUCGGAUCGCATT; antisense UGCGAUCCGACUCACCAAUTT; chemistry not given here)
cytotoxic effect on SKOV3 cells ([1]; 50 nM each siRNA, absence of cisplatin, FIG. 12): no cytotoxic effect
cytotoxic effect of each siRNA ([1]; SKOV3 cells, FIGS. 13 and 14): slight cytoxic effect
cell viability (trypan blue exclusion) ([1]; SKOV3 cells, alone 150 nM or in combination 75 nM each, FIGS. 13 and 14): reduction of cell viability
cell death (morphology, FACS analysis of the cell cycle) ([1]; SKOV3 cells, cisplatin 5 or 20 μg/ml, siRNA 150 nM): moderate cell death by apoptosis
dose dependence of extinction of Mcl-1 protein expression [2]: dose-dependent
Bcl-XL mRNA level (RT-PCR) [3]: greatly reduces
optimal concentration ([4]; SKOV3 cells): 150 nM
persistence of the siXL1 effect ([4]; SKOV3 cells): 96 h
effect on Bcl-XL protein expression at lower dose ([4]; SKOV3 cells, 25 nM, FIG. 4): greatly reduced and delayed
time of maximum decrease of Bcl-XL protein expression [4, 5]: 72 h
time of reappearance of Bcl-XL protein expression [4, 5]: ≥ 144 h
Bcl-XL protein expression 24 hours after transfection ([4]; SKOV3 cells, 24 hours after siXL1 transfection): reduced
effect of various concentrations on Bcl-XL protein expression ([4]; SKOV3 cells, 72 h after transfection, FIG. 3): dose-dependent
Bcl-XL protein expression 24 hours after exposure to cisplatin ([4]; SKOV3 cells, 72 hours after siRNA transfection, cisplatin 5 and 20 μg/ml, FIG. 9): disappears almost completely
Bcl-XL protein expression after 72 hours ([4]; SKOV3 cells, 72 hours after transfection, FIG. 1C): disappeared totally
Bcl-XL protein expression 96 hours after cisplatin exposure ([4]; SKOV3 cells, 144 hours after transfection, combination with 20 μg/ml cisplatin, FIG. 9): reappears
Bcl-XL protein expression in various tumor cell lines ([4]; ovarian carcinoma, glioblastoma or mesothelioma cells, 72 h after transfection, FIGS. 2A&B): extinction
